Reference: US12187720B2, “Compounds for treatment of cancer” (ONCTERNAL THERAPEUTICS, INC., priority 2010, dated 2025)
Like-named read-outs stand apart in the source and are kept apart here.

Legend:
PPC-1 = test: SRB cytotoxicity assay, PPC-1 prostate cancer cells; type: cell-based, human
Excerpt: (§1) Cells were stained with SRB solution.

LNCaP = test: SRB cytotoxicity assay, LNCaP prostate cancer cells; type: cell-based, human
Excerpt: as §1

PC-3 = test: SRB cytotoxicity assay, PC-3 prostate cancer cells; type: cell-based, human; conditions: read-out: inhibitory effects PC3
Excerpt: as §1

[1] = system: melanoma and prostate cancer cell lines; test: SRB cytotoxicity, summary or average over melanoma and prostate cancer cell lines; type: cell-based; conditions: for IC50: average of all seven cell lines
DU 145 = test: SRB cytotoxicity assay, DU 145 prostate cancer cells; type: cell-based; conditions: Homo sapiens
Excerpt: as §1

[2] = Table 13A, read-out: inhibitory effects DU145
[3] = Homo sapiens, PPC-1, Table 13A, read-out: inhibitory effects PPC1
[4] = Homo sapiens, LNCaP, Table 13A, read-out: inhibitory effects LNCaP
[5] = Homo sapiens, LNCaP, Table 6A, read-out: IC50 LNCaP

4-Methoxyphenyl(4-(3,4,5-trimethoxyphenyl)-1H-imidazol-2-yl)methanone and 4-methoxyphenyl(5-(3,4,5-trimethoxyphenyl)-1H-imidazol-2-yl)methanone [70y]
IC50 (PPC-1; Table 13B, read-out: inhibitory effects PPC1): 5680 nM | IC50 (LNCaP; Table 13B, read-out: inhibitory effects LNCaP): 708 nM | IC50 (PC-3; Table 13B): 10400 nM

COc1cc(C(=O)c2cccc(-c3ccccc3)c2)cc(OC)c1OC [1a, Biphenyl-3-yl(3,4,5-trimethoxyphenyl)methanone]
antiproliferative activity in words [1]: hundreds of nanomolar range

COc1cc(C(O)c2csc(-c3ccccc3)n2)cc(OC)c1OC (stereo not drawn) [2b, (2-Phenylthiazol-4-yl)(3,4,5-trimethoxyphenyl)methanol]
antiproliferative activity in words [1]: inactive

CNCc1ccc(-c2nc(C(=O)c3cc(OC)c(OC)c(OC)c3)cs2)cc1.Cl [2s, (2-(4-((Methylamino)methyl)phenyl)thiazol-4-yl)(3,4,5-trimethoxyphenyl)methanone hydrochloride]
antiproliferative activity in words [1]: abrogated activity

COc1cc(C(=O)c2csc(-c3ccc(CN(C)C)cc3)n2)cc(OC)c1OC.Cl [2u, (2-(4-((Dimethylamino)methyl)phenyl)thiazol-4-yl)(3,4,5-trimethoxyphenyl)methanone hydrochloride]
antiproliferative activity in words [1]: abrogated activity

COc1cc(/C=C\c2csc(-c3ccccc3)n2)cc(OC)c1OC [3a, (Z)-2-Phenyl-4-(3,4,5-trimethoxystyryl)thiazole]
antiproliferative activity in words [1]: lost activity

Cc1ccc(-c2nc(C(=O)c3ccc(F)cc3)cn2S(=O)(=O)c2ccccc2)cc1 [11db, (4-fluorophenyl)(1-(phenylsulfonyl)-2-(p-tolyl)-1H-imidazol-4-yl)methanone]
IC50 [1]: 111 nM

COc1cc(C(=O)c2cn(S(=O)(=O)c3ccccc3)c(-c3ccc(N(C)C)cc3)n2)cc(OC)c1OC [11ga, (2-(4-(dimethylamino)phenyl)-1-(phenylsulfonyl)-1H-imidazol-4-yl)(3,4,5-trimethoxyphenyl)methanone]
IC50 [1]: 285 nM

CN(C)c1ccc(-c2nc(C(=O)c3ccc(F)cc3)cn2S(=O)(=O)c2ccccc2)cc1 [11gb, (2-(4-(dimethylamino)phenyl)-1-(phenylsulfonyl)-1H-imidazol-4-yl)(4-fluorophenyl)methanone]
IC50 [1]: 87 nM

COc1ccc(-c2nc(C(=O)c3cc(OC)c(OC)c(OC)c3)cn2S(=O)(=O)c2ccccc2)cc1OC [11ha, (2-(3,4-dimethoxyphenyl)-1-(phenylsulfonyl)-1H-imidazol-4-yl)(3,4,5-trimethoxyphenyl)methanone]
IC50 [1]: 268 nM

COc1cc(OC)cc(C(=O)c2c[nH]c(-c3ccccc3)n2)c1 [12ad, (3,5-dimethoxyphenyl)(2-phenyl-1H-imidazol-4-yl)methanone]
IC50 [1]: 3100 nM

O=C(c1ccc(F)cc1)c1c[nH]c(-c2ccccc2)n1 [12af, (4-fluorophenyl)(2-phenyl-1H-imidazol-4-yl)methanone]
IC50 [1]: 910 nM

Cc1ccc(-c2nc(C(=O)c3ccc(F)cc3)c[nH]2)cc1 [12db, (4-fluorophenyl)(2-(p-tolyl)-1H-imidazol-4-yl)methanone]
IC50 [1]: 109 nM

COc1cc(C(=O)c2c[nH]c(-c3ccc(OCc4ccccc4)cc3)n2)cc(OC)c1OC [12ja, (2-(4-(benzyloxy)phenyl)-1H-imidazol-4-yl)(3,4,5-trimethoxyphenyl)methanone]
IC50 [1]: 7300 nM

O=C(c1ccc(F)cc1)c1c[nH]c(-c2ccc(OCc3ccccc3)cc2)n1 [12jb, (2-(4-(benzyloxy)phenyl)-1H-imidazol-4-yl)(4-fluorophenyl)methanone]
fold more activity than the comparator ([1]; 2e-cis vs 2e-trans, 12jb vs 12kb): 440 fold | IC50 [1]: 75 nM

O=C(c1cc(O)c(O)c(O)c1)c1c[nH]c(-c2ccc(Cl)cc2)n1 [13fa, (2-(4-chlorophenyl)-1H-imidazol-4-yl)(3,4,5-trihydroxyphenyl)methanone]
IC50 [1]: 3890 nM

COc1cc(C(=O)[C@H]2COC(c3ccccc3)=N2)cc(OC)c1OC [35a, (2R)-(2-Phenyl-4,5-dihydro-oxazol-4-yl)-(3,4,5-trimethoxy-phenyl)-methanone]
antiproliferative activity in words [1]: hundreds of nanomolar range

COc1cc(C(=O)c2coc(-c3ccccc3)n2)cc(OC)c1OC [36a, (2-Phenyl-oxazol-4-yl)-(3,4,5-trimethoxy-phenyl)-methanone]
antiproliferative activity in words [1]: hundreds of nanomolar range

COc1cc(C(=O)c2nc(-c3ccccc3)c[nH]2)cc(OC)c1OC [70a, (4-phenyl-1H-imidazol-2-yl)(3,4,5-trimethoxyphenyl)methanone]
IC50 (PC-3; Homo sapiens, PC-3, Table 13A): 14 nM

COc1cc(C(=O)c2nc(-c3ccc(F)cc3)c[nH]2)cc(OC)c1OC [70b, (4-(4-fluorophenyl)-1H-imidazol-2-yl)(3,4,5-trimethoxyphenyl)methanone]
IC50 (DU 145; [2]): 353 nM | IC50 (PPC-1; [3]): 13 nM | IC50 (LNCaP; [4]): 114 nM | IC50 (PC-3; Homo sapiens, PC-3, Table 13A): 196 nM

COc1cc(C(=O)c2nc(-c3ccc(N(C)C)cc3)c[nH]2)cc(OC)c1OC [70h, (4-(4-(dimethylamino)phenyl)-1H-imidazol-2-yl)(3,4,5-trimethoxyphenyl)methanone]
IC50 (DU 145; [2]): 263 nM | IC50 (PPC-1; [3]): 120 nM | IC50 (LNCaP; [4]): 96 nM | IC50 (PC-3; Homo sapiens, PC-3, Table 13A): 117 nM

COc1cc(C(=O)c2nc(-c3ccccc3)cn2C)cc(OC)c1OC [70m, (1-methyl-4-phenyl-1H-imidazol-2-yl)(3,4,5-trimethoxyphenyl)methanone]
IC50 (PC-3; Homo sapiens, PC-3, Table 13A): 16 nM

CCn1cc(-c2ccccc2)nc1C(=O)c1cc(OC)c(OC)c(OC)c1 [70n, (1-ethyl-4-phenyl-1H-imidazol-2-yl)(3,4,5-trimethoxyphenyl)methanone]
IC50 (PC-3; Homo sapiens, PC-3, Table 13A): 25 nM

COc1cc(C(=O)c2nc(-c3ccccc3)cn2Cc2ccccc2)cc(OC)c1OC [70o, (1-benzyl-4-phenyl-1H-imidazol-2-yl)(3,4,5-trimethoxyphenyl)methanone]
IC50 (PC-3; Homo sapiens, PC-3, Table 13A): 72 nM

COc1cc(C(=O)c2nc(-c3ccccc3)cn2C2CCCC2)cc(OC)c1OC [70p, (1-cyclopentyl-4-phenyl-1H-imidazol-2-yl)(3,4,5-trimethoxyphenyl)methanone]
IC50 (PC-3; Homo sapiens, PC-3, Table 13A): 56 nM

COc1cc(C(=O)c2csc(-c3ccccc3)n2)cc(OC)c1OCc1ccccc1 [compound 9]
IC50 (LNCaP; [5]): ~10000 nM

Cc1ccc(-c2nc(C(=O)c3ccc(F)cc3)cs2)cc1 [compound 11]
IC50 (DU 145; Table 6A, read-out: IC50 DU 145): ~10000 nM | IC50 (PPC-1; Homo sapiens, PPC-1, Table 6A, read-out: IC50 PPC-1): ~10000 nM | IC50 (LNCaP; [5]): > 10000 nM

O=C(c1ccc(F)cc1)c1csc(-c2ccccc2)n1 [compound 12]
IC50 (LNCaP; [5]): > 10000 nM

O=C(c1ccc(OC(F)(F)F)cc1)c1csc(-c2ccccc2)n1 [compound 13]
IC50 (LNCaP; [5]): > 10000 nM

O=C(c1ccc(F)cc1)c1csc(-c2ccc(F)cc2)n1 [compound 14]
IC50 (LNCaP; [5]): > 10000 nM

O=C(c1csc(-c2cc(F)c(F)c(F)c2)n1)c1c(F)c(F)c(F)c(F)c1F [compound 16]
IC50 (LNCaP; [5]): > 10000 nM

COc1cc(C(=O)c2csc(-c3ccccc3)n2)cc(OC)c1OC(=O)CCl [compound 18]
IC50 (LNCaP; [5]): ~10000 nM

O=C(c1ccc2c(c1)OCO2)N1CCC(c2ccccc2)CC1 [compound 19]
IC50 (LNCaP; [5]): > 20000 nM

O=C(c1ccc(F)cc1)N1CCC(c2ccccc2)CC1 [compound 22]
IC50 (LNCaP; [5]): > 20000 nM

COc1cc(C(=O)c2csc(-c3ccccc3)n2)cc(OC)c1OC(=O)C(F)(F)F [compound 23]
IC50 (LNCaP; [5]): ~10000 nM

COc1cc(-c2nc(C(=O)c3ccc(F)cc3)cn2C(=O)c2ccc(F)cc2)cc(OC)c1OC [compound 30]
IC50 (LNCaP; [5]): > 10000 nM

O=C(c1cc(O)c(O)c(O)c1)c1csc(-c2ccccc2)n1 [compound 33]
IC50 (LNCaP; [5]): > 2000 nM
